Test results taken from PubChem BioAssay AID2060882 (Molecular Pharmacology Branch, DTP, NCI, 2025).

Tested on: 898857-211-R-J1-PDC complex spheroids, growth % test/control
Assay: Anticancer human tumor 898857-211-R-J1-PDC patient-derived melanoma cell line growth inhibition [RAS]
Conditions: for IC50: curve of first compound; for viability, T/C: stronger effect = lower value
Outline: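 Agents were tested in combination matrices in half-log decrements from a top concentration at or near clinical Cmax (10 microM if undetermined). Targets were multi-cell spheroids of tumour lines plus HUVEC and MSC stromal cells.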

[1] = second compound 0.00316 µM, first compound 0.0316 µM
[2] = second compound 0.00316 µM, first compound 0.1 µM
[3] = second compound 0.00316 µM, first compound 0.316 µM
[4] = second compound 0.00316 µM, first compound 1 µM
[5] = second compound 0.00316 µM, first compound 3.16 µM
[6] = second compound 0.00316 µM, first compound 10 µM
[7] = second compound 0.01 µM, first compound 0.0316 µM
[8] = second compound 0.01 µM, first compound 0.1 µM
[9] = second compound 0.01 µM, first compound 0.316 µM
[10] = second compound 0.01 µM, first compound 1 µM
[11] = second compound 0.01 µM, first compound 3.16 µM
[12] = second compound 0.01 µM, first compound 10 µM
[13] = second compound 0.0316 µM, first compound 0.0316 µM
[14] = second compound 0.0316 µM, first compound 0.1 µM
[15] = second compound 0.0316 µM, first compound 0.316 µM
[16] = second compound 0.0316 µM, first compound 1 µM
[17] = second compound 0.0316 µM, first compound 3.16 µM
[18] = second compound 0.0316 µM, first compound 10 µM
[19] = second compound 0.1 µM, first compound 0.0316 µM
[20] = second compound 0.1 µM, first compound 0.1 µM
[21] = second compound 0.1 µM, first compound 0.316 µM
[22] = second compound 0.1 µM, first compound 1 µM
[23] = second compound 0.1 µM, first compound 3.16 µM
[24] = second compound 0.1 µM, first compound 10 µM
[25] = second compound 0.316 µM, first compound 0.0316 µM
[26] = second compound 0.316 µM, first compound 0.1 µM
[27] = second compound 0.316 µM, first compound 0.316 µM
[28] = second compound 0.316 µM, first compound 1 µM
[29] = second compound 0.316 µM, first compound 3.16 µM
[30] = second compound 0.316 µM, first compound 10 µM
[31] = second compound 1 µM, first compound 0.0316 µM
[32] = second compound 1 µM, first compound 0.1 µM
[33] = second compound 1 µM, first compound 0.316 µM
[34] = second compound 1 µM, first compound 1 µM
[35] = second compound 1 µM, first compound 3.16 µM
[36] = second compound 1 µM, first compound 10 µM
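Note: spheroids exposed to compound for seven days before readout.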
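Throughout, for viability, T/C: 100% = DMSO vehicle control wells.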

For `Cc1nc(N2CCC3(CC2)COC(C)C3N)c(CO)nc1Sc1ccnc(N)c1Cl` (stereo unspecified) + C=CC(=O)N1CCN(c2nc(OCC3CCCN3C)nc3c(F)c(-c4nc(N)cc(C)c4C(F)(F)F)c(Cl)cc23)C(C)C1, the IC50 (second compound 0.00316 µM) was over 10 µM, the IC50 (second compound 0.01 µM) was over 10 µM and the IC50 (second compound 0.0316 µM) was over 10 µM. For the same compound, the IC50 (second compound 0.1 µM) was over 10 µM, the IC50 (second compound 0.316 µM) was over 10 µM and the IC50 (second compound 1 µM) was over 10 µM. The viability, T/C [1] was 101%, the viability, T/C [2] was 92.4% and the viability, T/C [3] was 89%. For the same compound, the viability, T/C [4] was 82.2%, the viability, T/C [5] was 98.5% and the viability, T/C [6] was 92.1%. It also gave a viability, T/C [7] of 97.7%, a viability, T/C [8] of 94.6% and a viability, T/C [9] of 80.8%. The viability, T/C [10] was 91%, the viability, T/C [11] was 96.8% and the viability, T/C [12] was 81.1%. For the same compound, the viability, T/C [13] was 104%, the viability, T/C [14] was 102% and the viability, T/C [15] was 95.4%. For the same compound, the viability, T/C [16] was 98.5%, the viability, T/C [17] was 97.3% and the viability, T/C [18] was 99.5%. It also gave a viability, T/C [19] of 96.4%, a viability, T/C [20] of 102% and a viability, T/C [21] of 95.6%. It also gave a viability, T/C [22] of 94%, a viability, T/C [23] of 96.3% and a viability, T/C [24] of 91.7%. For the same compound, the viability, T/C [25] was 110%, the viability, T/C [26] was 102% and the viability, T/C [27] was 107%. For the same compound, the viability, T/C [28] was 103%, the viability, T/C [29] was 98.1% and the viability, T/C [30] was 93.5%. It also gave a viability, T/C [31] of 110%, a viability, T/C [32] of 106% and a viability, T/C [33] of 92.9%. It also gave a viability, T/C [34] of 97.4%, a viability, T/C [35] of 107% and a viability, T/C [36] of 82.2%.

`NC1c2ccccc2OC12CCN(c1cnc3c(N4CCCc5ncccc54)n[nH]c3n1)CC2` (stereo unspecified) + C=CC(=O)N1CCN(c2nc(OCC3CCCN3C)nc3c(F)c(-c4nc(N)cc(C)c4C(F)(F)F)c(Cl)cc23)C(C)C1 was tested, and the IC50 (second compound 0.00316 µM) was over 10 µM, the IC50 (second compound 0.01 µM) was over 10 µM and the IC50 (second compound 0.0316 µM) was over 10 µM. It also gave an IC50 (second compound 0.1 µM) of over 10 µM, an IC50 (second compound 0.316 µM) of over 10 µM and an IC50 (second compound 1 µM) of over 10 µM. It also gave a viability, T/C [1] of 92.5%, a viability, T/C [2] of 98% and a viability, T/C [3] of 92.8%. For the same compound, the viability, T/C [4] was 89.2%, the viability, T/C [5] was 79.9% and the viability, T/C [6] was 75%. For the same compound, the viability, T/C [7] was 94.9%, the viability, T/C [8] was 85.9% and the viability, T/C [9] was 87.2%. It also gave a viability, T/C [10] of 83.3%, a viability, T/C [11] of 81.6% and a viability, T/C [12] of 78.6%. It also gave a viability, T/C [13] of 88.3%, a viability, T/C [14] of 85.8% and a viability, T/C [15] of 88.2%. For the same compound, the viability, T/C [16] was 86.2%, the viability, T/C [17] was 87.3% and the viability, T/C [18] was 71.8%. For the same compound, the viability, T/C [19] was 98.6%, the viability, T/C [20] was 89.8% and the viability, T/C [21] was 97.3%. It also gave a viability, T/C [22] of 99.5%, a viability, T/C [23] of 103% and a viability, T/C [24] of 74.1%. It also gave a viability, T/C [25] of 112%, a viability, T/C [26] of 103% and a viability, T/C [27] of 101%. The viability, T/C [28] was 107%, the viability, T/C [29] was 102% and the viability, T/C [30] was 76%. The viability, T/C [31] was 116%, the viability, T/C [32] was 93.6% and the viability, T/C [33] was 108%. For the same compound, the viability, T/C [34] was 94.2%, the viability, T/C [35] was 87.3% and the viability, T/C [36] was 58%.

For `Nc1ccn(C2OC(CO)C(O)C2(F)F)c(=O)n1` (stereo unspecified) + C=CC(=O)N1CCN(c2nc(OCC3CCCN3C)nc3c(F)c(-c4nc(N)cc(C)c4C(F)(F)F)c(Cl)cc23)C(C)C1, the IC50 (second compound 0.00316 µM) was 0.00789 µM, the IC50 (second compound 0.01 µM) was 0.00724 µM and the IC50 (second compound 0.0316 µM) was 0.0071 µM. It also gave an IC50 (second compound 0.1 µM) of 0.00699 µM, an IC50 (second compound 0.316 µM) of 0.0073 µM and an IC50 (second compound 1 µM) of 0.00689 µM. It also gave a viability, T/C (second compound 0.00316 µM, first compound 0.00316 µM) of 110%, a viability, T/C (second compound 0.00316 µM, first compound 0.01 µM) of 34.5% and a viability, T/C [1] of 6.39%. For the same compound, the viability, T/C [2] was 4.85%, the viability, T/C [3] was 5.1% and the viability, T/C [4] was 4.69%. The viability, T/C (second compound 0.01 µM, first compound 0.00316 µM) was 107%, the viability, T/C (second compound 0.01 µM, first compound 0.01 µM) was 27.9% and the viability, T/C [7] was 5.64%. For the same compound, the viability, T/C [8] was 4.72%, the viability, T/C [9] was 4.8% and the viability, T/C [10] was 4.83%. The viability, T/C (second compound 0.0316 µM, first compound 0.00316 µM) was 103%, the viability, T/C (second compound 0.0316 µM, first compound 0.01 µM) was 27.9% and the viability, T/C [13] was 7.07%. For the same compound, the viability, T/C [14] was 5.22%, the viability, T/C [15] was 4.65% and the viability, T/C [16] was 4.83%. For the same compound, the viability, T/C (second compound 0.1 µM, first compound 0.00316 µM) was 96%, the viability, T/C (second compound 0.1 µM, first compound 0.01 µM) was 29.2% and the viability, T/C [19] was 6.93%. For the same compound, the viability, T/C [20] was 4.35%, the viability, T/C [21] was 4.72% and the viability, T/C [22] was 4.89%. The viability, T/C (second compound 0.316 µM, first compound 0.00316 µM) was 103%, the viability, T/C (second compound 0.316 µM, first compound 0.01 µM) was 30.1% and the viability, T/C [25] was 6.17%. It also gave a viability, T/C [26] of 5.08%, a viability, T/C [27] of 5.71% and a viability, T/C [28] of 4.45%. The viability, T/C (second compound 1 µM, first compound 0.00316 µM) was 104%, the viability, T/C (second compound 1 µM, first compound 0.01 µM) was 24% and the viability, T/C [31] was 8.63%. It also gave a viability, T/C [32] of 5.29%, a viability, T/C [33] of 6.52% and a viability, T/C [34] of 5.69%.
